Test results reported in patent publication US20050176115A1, “Process for the production of methionine” (Nippon Soda Co., Ltd., priority 2002, published 2005).
Where two headings read alike, the source gives them in different places.

Key:
[1] = by addition of inorganic alkali such as NaOH and KOH
[2] = ammonia present at an excessive amount in mole ratio to methionine; 5-50° C.; FIG. 1
Excerpt: About 20 wt % of methionine also can be dissolved in water by addition of inorganic alkali such as NaOH and KOH, while in this case it is required to neutralize with the use of acid to obtain a product in the form of salt-free solid of methionine, leading to a problem that an additional operation to remove a lot of inorganic salt waste generated from the neutralization is required.

[3] = cited from earlier work

SMILES: CSCC[C@H](N)C(=O)O (racemic) [methionine]
- amount of methionine that can be dissolved in water [1]: About 20 wt %
- solubility of methionine [2]: increases
- water solubility ([3]; at 25° C.): 3.38 g/100 g·H2O
- water solubility ([3]; at 50° C.): 6.07 g/100 g·H2O
